The record followed here is US8772493B2, “Compounds having auditory protective effect” (Ajou University Industry-Academic Cooperation Foundation, priority 2010, dated 2014).

SMILES strings stand for the structures.

Series [1] relates to HEI-OC1. The series can be described thus: MTT assay in auditory cells HEI-OC1. In kind it is cell-based. As to the method:
(§1) HEI-OC1 and UB-OC1 as auditory cells were subjected to MTT assay. Auditory cell lines were seeded on a 96-well plate in the ratio of 2×10^3 cells/well, and then cultured in an incubator under the condition of 37° C., 5% CO2 for 2 days. The compounds of Examples 1 and 2 were used at various concentrations with operating 5 runs for each sample, and then cultured in the incubator for 16 hours. The plate was treated with 1 mg/ml MTT solution per well, and then cultured in the incubator for 4 hours. Then, 100 μl DMSO per well was used to dissolve formazan, and the optical density of formazan as dissolved was measured at 540 nm.
For orientation: Tetrazolium assays rely on reduction of a dye to a coloured formazan, in cell work by metabolically active cells.

A further series relates to rat hearing. The series can be described thus: Auditory brainstem responses after transtympanic injection in rat. It counts as in vivo, Sprague-Dawley rats. The note with it: rat ears pretreated with transtympanic compound (2 mM), then cisplatin.
Series [2] relates to HEI-OC1. The experiment in a line: TUNEL assay. It counts as cell-based. The settings on record: compound alone. The procedure: 3×10^5 cells were seeded on the 6-well, incubated, then starved for 24 hours, and treated with the drug of the present invention by conditions, and then incubated for 24 hours. The cells were fixed with addition of 4% paraformaldehyde at normal temperature for 30 minutes, then washed two times with PBS, and treated with the permeablilization solution comprising 0.1% Triton X-100 at normal temperature for 10 minutes. The cells were washed again two times with PBS, and after adding terminal deoxynucleotidyl transferase (TDT) and nucleotide mixture, incubated for one hour with blocking out the light at 37° C. After washing two times with PBS, the apoptosis of cells was examined under fluorescence microscope. For control staining of cells without apoptosis, 4,6-diamino-2-phenylindole (DAPI, Sigma) solution was used. The stained cells were analyzed using a fluorescence microscope (Carl Zeiss, Oberkochen, Germany). TUNEL-positive cells were manually counted under a 200× magnification field in triplicate.

The test system of the next series is UB-OC1. The experiment in a line: MTT assay in auditory cells UB-OC1. In kind it is cell-based. The note with it: UB-OC1, 50 of cisplatin. As to the method:
as §1

Series [3] concerns zebrafish neuromast. The series can be described thus: Scanning and transmission electron microscopy of zebrafish neuromast. In kind it is in vivo, Danio rerio. The note with it: 50 μM cisplatin. An excerpt:
They were dried with a drier, treated with an evaporator (MED010; Baltec, Hudson, N.H.), and then observed using a scanning microscope (JSM-6700F JEOL, Tokyo, Japan).
Larvae were cut in the direction from head to tail, sliced to a thickness of […], and then stained with 1% toluidine blue. They were divided into ultrathin sections (90 nm) using Ultracut S microtome (Leica, Wetzlar, Germany), mounted on 200-mesh Athene thin bar-grids, treated with uranyl acetate and lead citrate, and then observed using s transmission electron microscope (EM 902A Carl Zeiss).

Series [4] deals with JNK, p38, cleaved caspase 3, PARP in HEI-OC1. The series can be described thus: Western blotting of apoptosis-related proteins. It counts as cell-based. The settings on record: cisplatin alone. In general terms: In western blotting, separated proteins are transferred to a membrane and probed.
Series [5] has as its system zebrafish neuromast. The experiment in a line: Observation of zebrafish neuromast using fluorescent microscope (Yo-Pro-1). In kind it is in vivo, Danio rerio. The note with it: zebrafish 4th day. As to the method: When embryo of zebrafish (Danio rerio) wild type is on the 4th day, the drugs (compounds of Examples 1 and 2) were added to 2 ml of embryo media in 6 well, and then 5 embryos were added to each group and reacted with the drug in the incubator maintained at 28.5° C. for one hour. After reaction, embryos were washed three times with embryo media, and then placed in clean embryo media for 3 hours. After 3 hours, […] of Yo-Pro-1 (molecular probes, Oregon U.S.A) was added to embryo media, and then reacted for one hour in the place with blocking the light. After reaction, embryos were washed again three times with clean embryo media, and anesthetized with 8 μg/ml of MS222 (3-aminobenzoic aid ethyl ester, methanesulfonate salt, Sigma Chemical CO, St Louis, U.S.A) anesthetic.

Another series deals with auditory cells. The series can be described thus: FACScan with Annexin-V and PI double staining. It counts as cell-based. The note with it: 50 μM of cisplatin. The procedure:
The degree of apoptosis was analyzed with Annexin V-FITC Apoptosis Detection kit I (BD Biosciences, San Diego, Calif.). 3×10^5 cells were seeded on 60 mm dish, incubated, then starved for 24 hours, and treated with the compounds of Examples 1 and 2 by conditions and incubated for 24 hours. After removing the culture solution, the cells were washed two times with PBS, and suspended in the binding buffer in the ratio of 1×10^6 cells/ml. 100 μl of this solution was transferred to 5 ml tube, and after addition of 5 μl of Annexin V-FITC to the tube, well mixed together, and then reacted for about 15 minutes in the dark place. Then, 400 μl of the binding buffer was added, and the cells were counted until 10,000 cells were on Becton Dicki nson FACSscan (Lysis II Ver. 1.0). The degree of apoptosis was measured depending on the expression of Annexin V-FITC from the result of FACScan flowcytometry. In addition, the degree of apoptosis was also measured under fluorescence microscope.

Series [6] has as its system HEI-OC1 cells. The experiment in a line: Measurement of intracellular ROS generation (DCFDA). It counts as cell-based. The settings on record: cisplatin, time-dependent. The procedure:
Intracellular generation of ROS was quantified using 5-(and 6)-carboxyl-20,70-dichlorodihydro fluorescein diacetate (DCFDA; Molecular Probes, Eugene, Oreg., USA). […] ROS generation at various time points was checked and the amount of ROS generation was the highest at 16 h. Therefore, 16 h as the time point for ROS detection was chosen for subsequent experiments. Cells were incubated in the dark with 10 μM DCFDA in serum-free medium for 10 min at 33° C. The oxidative burst (hydrogen peroxide, H2O2) was detected using a FACScan flow cytometer (Becton Dickinson, Franklin Lakes, N.J., USA) with excitation and emission settings at 488 and 530 nm, respectively.

In series [7] the test system is HEI-OC1. The series can be described thus: Measurement of mitochondrial membrane potential (MMP), JC-1. In kind it is cell-based. The note with it: cisplatin alone. As to the method:
The mitochondrial membrane potential (MMP) was measured using 5,5V,6,6V-tetrachloro-1,1V,3,3V-tetraethylbenzimidazolcarbocyanine iodide (JC-1; Molecular Probes) as a lipophilic cationic probe.
JC-1 is a fluorescent dye which is accumulated by mitochondria in its inside. If the function of mitochondria is normal, MMP is high and mitochondria are predominantly red. Then, if mitochondria are damaged, MMP is reduced and mitochondria are changed into green.

The test system of series [8] is HEI-OC1 cells. The series can be described thus: Cell cycle analysis using FACScan. It counts as cell-based. The settings on record: cisplatin alone. As to the method:
The cells were treated with trypsin, washed with PBS, and then stained with a dye (5 mg/ml propidium iodide, 20 mg/ml RNase A) in a dark room at normal temperature for 15 minutes. The stained cells were analyzed with a flow cytometry cell sorter (Becton Dickinson).

Another series relates to rat cochlea. The experiment in a line: Tissue TUNEL assay of rat cochlea. The settings on record: cisplatin only. In kind it is in vivo. As to the method:
Animals were sedated using an intraperitoneal (IP) injection of 3.125 mg/kg xylazine, 3.125 mg/kg zolazepam and […]. The rats were divided into two groups after baseline auditory brainstem response (ABR) testing was performed. […] The control group (four rats, eight ears) received transtympanic saline in both ears followed by IP saline (16 mL/kg by IP infusion). The compound of Example 2 only group (four rats, eight ears) received transtympanic the compound of Example 2 in both ears followed by IP saline (16 mL/kg by IP infusion). On days 2 to 5, daily transtympanic injections of either 2 mM the compound of Example 2 or saline were continued. Posttreatment ABR was obtained on day 14.
After fixation by intralabyrinthine perfusion of 4% paraformaldehyde (pH 7.4), the cochleae were removed and then were incubated in the same fixative overnight. Decalcification was performed in ethylenediamine tetraacetic acid solution (EDTA) (10% in PBS) for 3-4 weeks. Subsequently, the tissues were embedded in paraffin.
Organ of Corti explants were each fixed for 15 min in 3.7% (v/v) formaldehyde in PBS at room temperature. Each explant was rinsed with PBS and incubated in proteinase K diluted from the TUNEL kit for 15 min at room temperature. […] Each explant was washed twice with PBS and examined using a fluorescence microscope.

Description for rat hearing: Sixteen female Sprague-Dawley rats (Samtaco, Osan, Korea) weighing between 180 and 220 g were used. After transportation, the animals were maintained in the central animal laboratory for at least 1 week. The animals were housed in independently ventilated cages and were allowed free access to water and food. The temperature was maintained at 21±1° C., and the lights were turned on from 8:00 AM to 8:00 PM. Rats with an inner ear infection were not used. This study was approved by the Committee for Ethics in Animal Experiments of the Ajou University School of Medicine.
Animals were sedated using an intraperitoneal (IP) injection of 3.125 mg/kg xylazine, 3.125 mg/kg zolazepam and 11.5 mg/kg xylazine. The rats were divided into two groups after baseline auditory brainstem response (ABR) testing was performed. […] The control group (four rats, eight ears) received transtympanic saline in both ears followed by IP saline (16 mL/kg by IP infusion). […] Posttreatment ABR was obtained on day 14.
Preyer's reflex and otoscopy were used to confirm that the middle ears were normal. The rats were anaesthetized using an IP injection of 3.125 mg/kg zolazepam and 11.5 mg/kg xylazine. Subdermal sterile stainless steel electrode needles were attached, with the active lead at the vertex that referred to a second electrode located at the tip of the nose. The grounding electrode was placed on the front paw muscles. […]

Regarding `NC1(c2ccc(F)cc2)C(=O)Nc2cccc(F)c2C1=O` (stereo not drawn) [Example 2, 3-amino-5-fluoro-3-(4-fluorophenyl)quinolin-2,4(1H,3H)-dione], in the series on HEI-OC1 [1] (HEI-OC1, compound alone, up to elevated dose of 200), the “cytotoxicity in auditory hair cells (MTT)” value was “substantially same result”. Further, in the series with rat hearing, the “average click-evoked ABR threshold shift” value came to 38.5±11.3 dB and the “click-evoked ABR threshold shift, range” value is reported as 27-49 dB. Further, the “apoptosis (TUNEL positive cells) on administration of compound alone” value with HEI-OC1 [2] is listed as “did not cause apoptosis”.

As for `N.N.[Cl][Pt][Cl]` [cisplatin, reference compound], the “auditory hair cells killed by cisplatin (MTT)” value in the series on UB-OC1 is reported as “about 50%”; with HEI-OC1 [1] (HEI-OC1, 50 of cisplatin), “about 50%”. For the same compound, the “kinocilium of auditory cells of neuromast (SEM, TEM)” value with zebrafish neuromast [3] was “markedly damaged or mostly disappeared or fused”. Further, in [4], the “JNK, p38, cleaved caspase 3, PARP” value is “increased”. The reduction of neuromast in the series with zebrafish neuromast [5] (50 μM cisplatin) is reported as ≥ 70%. The neuromast result in the series with zebrafish neuromast [5] (100 μM cisplatin) is reported as “substantially all of neuromast was disappeared”. Moreover, the “apoptosis (annexin/PI FACS)” value in the series on auditory cells was “increased”. The “generation of intracellular ROS” value in the series with HEI-OC1 cells [6] is on record as “significantly increased”. Also, the “mitochondrial membrane potential (JC-1 fluorescence)” value in the series with HEI-OC1 [7] is “changed into green fluorescence”. In the series with HEI-OC1 cells [8], the “sub G1 related to apoptosis” value was “increase”. Also, the “TUNEL positive cells in cochlea versus control group” value in the series with rat cochlea is recorded as “more numerous”.
